In brackets after ≈: the same amount, converted by molar mass.
Columns and labels:
Folsomia candida = conditions: chronic/long-term; mortality
Bibionidae = conditions: chronic/long-term; duration: 28 days; development
Daphnia magna = conditions: chronic/long-term; duration: 21 days; reproduction
Apis mellifera = conditions: acute; oral; unspecified; mortality
Anas platyrhynchos = conditions: oral, mortality
Tagia sp. = conditions: acute, duration: 14 days
Typhlodromus pyri [1] = conditions: not reported; mortality
Typhlodromus pyri [2] = test: LR50; higher = less toxic; conditions: not reported; mortality

CC1(C)[C@H](C(=O)O[C@H](C#N)c2cccc(Oc3ccccc3)c2)[C@@H]1/C=C\C(=O)OC(C(F)(F)F)C(F)(F)F [Acrinathrin]
NOEC (Folsomia candida): < 1 mg/kg
LD50 (Rattus norvegicus; acute, oral, mortality): > 5000 mg/kg-day
NOAEL (Rattus norvegicus; acute, oral, neurology): 1 mg/kg-day
NOAEL (Rattus norvegicus; reproduction developmental, no effects): 9.4 mg/kg-day
LC50 (Pimephales promelas; acute, duration: 96 hours, mortality): 1.7 ng/mL (≈ 3.14 nM)
NOEC (Pimephales promelas; chronic/long-term, duration: 28 days): 1.1e-05 mg/L
NOEC (Bibionidae): 3.1e-05 mg/L
LD50 (Colinus virginianus; acute, oral, mortality): > 2250 mg/kg-day
NOEC (Colinus virginianus; reproduction developmental, reproduction): 19.9 mg/kg-day
NOEC (Colinus virginianus; short-term, oral, diet, mortality): 325 mg/kg-day
NOEC (Daphnia magna): 3.2e-06 mg/L
LD50 (Apis mellifera): 0.077 µg/piece
LD50 (Anas platyrhynchos; acute, unspecified): > 2000 mg/kg-day
NOEC (Anas platyrhynchos; short-term, feed): 173 mg/kg-day
NOEC (Tagia sp.; biomass): 1.6 mg/kg
LC50 (Tagia sp.; mortality): > 1000 mg/kg
NOEC (Typhlodromus pyri [1]): 0.00068 g/ha
LR50 (Typhlodromus pyri [2]): 0.006 g/ha

From EPA's ToxValDB 9.5 (doi:10.2903/j.efsa.2013.3469)
